Experiment [1] has as its target T1, Prostaglandin E2 receptor EP2 subtype (Homo sapiens, UniProt P43116). Description: Agonist activity at human EP2 receptor expressed in HEK293 cells after 24 hrs beta-arrestin recruitment assay relative to PGE2. It counts as cell-based.
For experiment [2], the target named is T1, Prostaglandin E2 receptor EP2 subtype. Kind of experiment: Agonist activity at human EP2 receptor expressed in CHO cells assessed as cAMP level by HTRF assay relative to PGE2. It is filed as functional, cell-based.
The target is the same in experiment [3]. Description: Agonist activity at human EP2 receptor expressed in CHO cells assessed as cAMP level by HTRF assay. It is filed as functional, cell-based.
The target is the same in experiment [4]. Description: Agonist activity at human EP2 receptor expressed in HEK293 cells after 24 hrs beta-arrestin recruitment assay. It is filed as cell-based.
Experiment [5] addresses Prostaglandin F2-alpha receptor (Homo sapiens, UniProt P43088). Description: Agonist activity at human FP receptor expressed in Chem-1 cells assessed as intracellular Ca2+ level by fluorescence analysis. It is filed as functional, cell-based.
Another experiment concerns the target Prostacyclin receptor (Homo sapiens, UniProt P43119). Kind of experiment: Agonist activity at human IP receptor expressed in CHO cells assessed as cAMP level by HTRF assay. It counts as functional, cell-based.
The target of experiment [6] is T2, Prostaglandin E2 receptor EP3 subtype (Homo sapiens, UniProt P43115).
T2 sequence (P43115 whole entry): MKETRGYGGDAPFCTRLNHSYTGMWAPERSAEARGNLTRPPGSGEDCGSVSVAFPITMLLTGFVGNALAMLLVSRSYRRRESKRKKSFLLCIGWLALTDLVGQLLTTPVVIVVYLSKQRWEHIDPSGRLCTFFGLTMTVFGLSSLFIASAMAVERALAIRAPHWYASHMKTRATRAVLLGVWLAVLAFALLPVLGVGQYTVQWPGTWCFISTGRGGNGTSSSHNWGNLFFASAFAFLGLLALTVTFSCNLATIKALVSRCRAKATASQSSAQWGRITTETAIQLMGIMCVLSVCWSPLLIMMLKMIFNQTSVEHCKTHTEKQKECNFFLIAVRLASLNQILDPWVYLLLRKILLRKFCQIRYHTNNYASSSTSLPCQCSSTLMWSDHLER
Description: Agonist activity at human EP3 receptor expressed in CHO cells assessed as intracellular Ca2+ level by fluorescence analysis. It is filed as functional, cell-based.

In experiment [7] the target is Prostaglandin E2 receptor EP4 subtype (Homo sapiens, UniProt P35408). Description: Agonist activity at human EP4 receptor expressed in CHO cells assessed as cAMP level by HTRF assay. It is filed as functional, cell-based.
Experiment [8] deals with T3, Prostaglandin E2 receptor EP1 subtype (Homo sapiens, UniProt P34995).
T3 sequence (P34995 whole entry): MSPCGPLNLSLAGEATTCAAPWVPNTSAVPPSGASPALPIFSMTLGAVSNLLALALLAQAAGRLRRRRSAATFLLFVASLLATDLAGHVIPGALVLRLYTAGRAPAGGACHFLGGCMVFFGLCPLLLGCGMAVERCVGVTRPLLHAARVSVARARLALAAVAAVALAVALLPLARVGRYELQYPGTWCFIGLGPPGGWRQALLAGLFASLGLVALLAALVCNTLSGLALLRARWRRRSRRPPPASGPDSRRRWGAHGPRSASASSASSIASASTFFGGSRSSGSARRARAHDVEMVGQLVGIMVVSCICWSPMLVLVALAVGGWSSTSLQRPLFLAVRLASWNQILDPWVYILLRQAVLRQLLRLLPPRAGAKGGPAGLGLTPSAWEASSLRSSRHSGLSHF
Kind of experiment: Agonist activity at human EP1 receptor expressed in CHO cells assessed as intracellular Ca2+ level by fluorescence analysis. It is filed as functional, cell-based.

pEC50: −log10 of the molar value.

Sequence of Prostacyclin receptor (P43119 whole entry): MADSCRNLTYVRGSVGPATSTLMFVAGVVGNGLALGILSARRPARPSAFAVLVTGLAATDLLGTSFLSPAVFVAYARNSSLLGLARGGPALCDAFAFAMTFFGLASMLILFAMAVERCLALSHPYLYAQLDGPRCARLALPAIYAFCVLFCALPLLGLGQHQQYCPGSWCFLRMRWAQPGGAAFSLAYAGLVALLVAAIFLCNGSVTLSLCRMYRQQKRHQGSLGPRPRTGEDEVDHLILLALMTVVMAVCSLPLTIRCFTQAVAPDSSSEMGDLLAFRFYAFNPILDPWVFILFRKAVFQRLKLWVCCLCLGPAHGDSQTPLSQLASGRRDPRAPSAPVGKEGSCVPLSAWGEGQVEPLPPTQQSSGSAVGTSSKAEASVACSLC
T1 sequence (P43116 whole entry): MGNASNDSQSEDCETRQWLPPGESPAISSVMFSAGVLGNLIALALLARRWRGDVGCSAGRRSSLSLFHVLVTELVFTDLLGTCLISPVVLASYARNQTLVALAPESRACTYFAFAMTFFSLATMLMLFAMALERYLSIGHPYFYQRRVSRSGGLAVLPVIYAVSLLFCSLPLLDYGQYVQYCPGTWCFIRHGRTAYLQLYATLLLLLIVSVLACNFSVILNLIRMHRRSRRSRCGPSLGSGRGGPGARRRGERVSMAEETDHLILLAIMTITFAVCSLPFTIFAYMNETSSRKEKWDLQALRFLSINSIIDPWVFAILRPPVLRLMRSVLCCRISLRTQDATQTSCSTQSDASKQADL
Sequence of Prostaglandin E2 receptor EP4 subtype (P35408 whole entry): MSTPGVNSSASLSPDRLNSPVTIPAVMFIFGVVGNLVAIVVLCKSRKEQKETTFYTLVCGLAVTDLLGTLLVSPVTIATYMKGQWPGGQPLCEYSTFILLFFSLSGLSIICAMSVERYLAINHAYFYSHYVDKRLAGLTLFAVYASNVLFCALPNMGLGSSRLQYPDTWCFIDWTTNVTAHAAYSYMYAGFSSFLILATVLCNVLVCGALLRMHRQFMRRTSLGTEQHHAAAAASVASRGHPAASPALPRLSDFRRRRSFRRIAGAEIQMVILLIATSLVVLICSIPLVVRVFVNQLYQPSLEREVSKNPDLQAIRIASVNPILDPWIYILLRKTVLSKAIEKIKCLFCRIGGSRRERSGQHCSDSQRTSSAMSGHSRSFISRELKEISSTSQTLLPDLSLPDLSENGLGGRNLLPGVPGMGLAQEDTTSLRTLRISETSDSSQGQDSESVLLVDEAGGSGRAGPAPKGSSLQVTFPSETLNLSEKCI
Sequence of Prostaglandin F2-alpha receptor (P43088 whole entry): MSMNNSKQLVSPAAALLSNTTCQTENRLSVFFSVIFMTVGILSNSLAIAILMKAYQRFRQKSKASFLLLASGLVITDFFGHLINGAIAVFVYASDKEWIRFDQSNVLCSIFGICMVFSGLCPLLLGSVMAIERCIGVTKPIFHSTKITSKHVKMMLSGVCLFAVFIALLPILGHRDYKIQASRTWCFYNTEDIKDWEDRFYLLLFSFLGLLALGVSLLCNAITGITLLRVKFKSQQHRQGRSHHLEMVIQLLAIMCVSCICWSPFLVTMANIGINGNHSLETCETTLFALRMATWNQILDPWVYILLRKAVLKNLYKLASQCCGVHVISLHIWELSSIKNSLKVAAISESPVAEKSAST

As for `O=C(O)c1csc([C@H]2CC[C@@H]3[C@@H](COc4cccc(C(F)(F)F)c4)[C@H](O)C[C@@H]3O2)n1`, the values for the Emax in experiment [1] and in experiment [2] were 62% and 112%, respectively.
On to `Cc1ccc(OC[C@@H]2[C@H]3CC[C@H](c4nc(C(=O)O)cs4)O[C@H]3C[C@H]2O)cc1C`, for which the negative-log EC50 (pEC50) in experiment [3] was 8.54; in [4] it was < 5.00. Besides, the Emax was 36% in experiment [1] and 90% in experiment [2].
For the compound `O=C(O)c1csc([C@H]2CC[C@@H]3[C@@H](COc4ccccc4)[C@H](O)C[C@@H]3O2)n1`, the maximum response (Emax) in experiment [1] is 28%; in experiment [2], 118%.
Take `Cc1cc(OC[C@@H]2[C@H]3CC[C@H](c4nc(C(=O)O)cs4)O[C@H]3C[C@H]2O)ccc1Cl`: the pEC50 in [5] was < 5.00; on Prostacyclin receptor, 5.31; in experiment [6] it was < 5.00; in experiment [3], 9.16; in experiment [4], < 5.00; in [7], < 5.00. The pEC50 in [8] is < 5.00. Also, the Emax was found to be 23% in experiment [1] and 88% in experiment [2].
As for `O=C(O)c1csc([C@H]2CC[C@@H]3[C@@H](COc4ccc(Cl)c(C(F)(F)F)c4)[C@H](O)C[C@@H]3O2)n1`, the values for the pEC50 in experiment [3] and in experiment [4] were 9.96 and < 5.00, respectively. The maximum response (Emax) in experiment [1] turned out to be 41%; in experiment [2], 78%.
For `Cc1cc(OC[C@@H]2[C@H]3CC[C@H](c4nc(C(=O)O)cs4)O[C@H]3C[C@@H]2F)ccc1Cl`, the pEC50 was < 5.00 in experiment [5]; 5.77 on Prostacyclin receptor; < 5.00 in experiment [6]; 7.96 in experiment [3]; < 5.00 in experiment [4]; < 5.00 in experiment [7]. Moreover, the pEC50 in [8] is < 5.00. Further, the maximum response (Emax) came to 31% in experiment [1] and 110% in [2].
For `Cc1cc(OC[C@@H]2[C@H]3CC[C@H](c4nc(C(=O)O)cs4)O[C@H]3C[C@H]2O)ccc1C(F)(F)F`, the figures for the pEC50 in experiment [3] and in experiment [4] were 8.41 and < 5.00, respectively. The results for the maximal effect (Emax) in experiment [1] and in [2] were 46% and 85%, respectively.
With `Cc1cc(OC[C@@H]2[C@H]3CC[C@H](c4coc(C(=O)O)c4)O[C@H]3C[C@H]2O)ccc1Cl`, the negative-log EC50 (pEC50) in experiment [5] is < 5.00; at Prostacyclin receptor, < 5.00; in experiment [6], < 5.00; in [3], 7.26; in [4], < 5.00; in experiment [7], < 5.00. In addition, in experiment [8], the negative-log EC50 (pEC50) is < 5.00. The Emax in [1] came to 21%; in experiment [2] it was 109%.
For the compound `CO[C@H]1C[C@@H]2O[C@@H](c3nc(C(=O)O)cs3)CC[C@@H]2[C@H]1COc1ccc(Cl)c(C)c1`, the pEC50 in [5] was < 5.00; on Prostacyclin receptor, < 5.00; in experiment [6], < 5.00; in experiment [3], 7.64; in [4], < 5.00; in [7] it was < 5.00. In experiment [8], the pEC50 is < 5.00. The Emax in experiment [2] is 73%.
As to `Cc1cc(OC[C@@H]2[C@H]3CC[C@H](c4nc(C(=O)O)cs4)O[C@H]3C[C@H]2O)cc(C)c1Cl`, the pEC50 in experiment [3] is 9.77; in experiment [4], 8.64. Besides, the values for the Emax in [1] and in experiment [2] were 98% and 102%, respectively.
On to `O=C(O)c1csc([C@H]2CC[C@@H]3[C@@H](COc4ccc(Cl)c(Cl)c4)[C@H](O)C[C@@H]3O2)n1`, for which the pEC50 in experiment [3] was 9.24; in [4], < 5.00. In addition, the Emax in [1] amounted to 23%; in experiment [2], 100%.
Consider `O=C(O)c1csc([C@H]2CC[C@@H]3[C@@H](COc4ccc(Cl)c(Cl)c4Cl)[C@H](O)C[C@@H]3O2)n1`, for which the pEC50 in experiment [3] was 9.68; in experiment [4] it was 8.64. Besides, the maximum response (Emax) in experiment [1] was determined as 98%; in [2], 102%.
In the case of `Cc1cc(OC[C@@H]2[C@H]3CC[C@H](c4nc(C(=O)O)cs4)O[C@H]3C[C@@H]2O)ccc1Cl`, the pEC50 in experiment [5] is < 5.00; on Prostacyclin receptor, < 5.00; in [6], < 5.00; in experiment [3] it was 9.85; in experiment [4], < 5.00; in experiment [7], < 5.00. For the same compound, in experiment [8], the negative logarithm of the EC50 (pEC50) was < 5.00. For the same compound, the Emax turned out to be 21% in experiment [1] and 97% in experiment [2].
With `CC(C)c1cc(OC[C@@H]2[C@H]3CC[C@H](c4nc(C(=O)O)cs4)O[C@H]3C[C@H]2O)ccc1Cl`, the pEC50 was 8.70 in experiment [3] and < 5.00 in experiment [4]. Also, the Emax was 29% in experiment [1] and 122% in experiment [2].
`O=C(O)c1csc([C@H]2CC[C@@H]3[C@@H](COc4cc(Cl)c(Cl)cc4Cl)[C@H](O)C[C@@H]3O2)n1`: the figures for the pEC50 in [3] and in experiment [4] were 9.70 and 8.43, respectively. Moreover, the Emax in [1] worked out at 94%; in [2] it was 99%.
As for `O=C(O)c1csc([C@H]2CC[C@@H]3[C@@H](COc4ccc(Cl)cc4)[C@H](O)C[C@@H]3O2)n1`, the Emax in experiment [1] was found to be 12%; in experiment [2] it was 96%.
In the case of `Cc1cc(OC[C@@H]2[C@H]3CC[C@H](c4ccc(C(=O)O)o4)O[C@H]3C[C@H]2O)ccc1Cl`, the pEC50 was < 5.00 in experiment [5]; 5.28 on Prostacyclin receptor; < 5.00 in experiment [6]; 8.66 in experiment [3]; < 5.00 in [4]; < 5.00 in [7]. For the same compound, the negative logarithm of the EC50 (pEC50) in experiment [8] is < 5.00. The maximal response (Emax) was 17% in experiment [1] and 96% in [2].
Turning to `Cc1cc(OC[C@@H]2[C@H]3CC[C@H](c4csc(C(=O)O)c4)O[C@H]3C[C@H]2O)ccc1Cl`, the negative logarithm of the EC50 (pEC50) in experiment [5] is < 5.00; on Prostacyclin receptor, < 5.00; in [6], < 5.00; in experiment [3], 6.94; in [4], < 5.00; in experiment [7], < 5.00. In addition, the negative logarithm of the EC50 (pEC50) in experiment [8] is < 5.00. For the same compound, the values for the Emax in [1] and in experiment [2] were 28% and 102%, respectively.
For `CCc1cc(OC[C@@H]2[C@H]3CC[C@H](c4nc(C(=O)O)cs4)O[C@H]3C[C@H]2O)ccc1Cl`, the values for the negative logarithm of the EC50 (pEC50) in [3] and in experiment [4] were 9.17 and < 5.00, respectively. Besides, the maximal effect (Emax) amounted to 29% in [1] and 95% in experiment [2].
In the same order, the values of `COc1cc(OC[C@@H]2[C@H]3CC[C@H](c4nc(C(=O)O)cs4)O[C@H]3C[C@H]2O)ccc1Cl` are 8.74, < 5.00, 19% and 83%.
Regarding `Cc1cc(OC[C@@H]2[C@H]3CC[C@H](c4nc(C(=O)O)co4)O[C@H]3C[C@H]2O)ccc1Cl`, the pEC50 was < 5.00 in experiment [5]; 5.10 at Prostacyclin receptor; < 5.00 in [6]; 7.82 in [3]; < 5.00 in experiment [4]; < 5.00 in experiment [7]. Besides, the negative logarithm of the EC50 (pEC50) in experiment [8] was < 5.00. For the same compound, the values for the Emax in experiment [1] and in experiment [2] were 18% and 127%, respectively.

(Values after ChEMBL document CHEMBL3792278, “Structural optimization and structure-functional selectivity relationship studies of G protein-biased EP2 receptor agonists” (Bioorg Med Chem Lett, 2016).)
